In PMC8783508, “A novel D-amino acid peptide with therapeutic potential (ISAD1) inhibits aggregation of neurotoxic disease-relevant mutant Tau and prevents Tau toxicity in vitro” (Alzheimer's Research & Therapy, 2022):
Non-standard residues stand in square brackets, D forms with d. Residues, ends and D or L forms follow the SMILES beside them.

What was measured:
Tau^FL-A152T = target: T1, Tau^FL-A152T (Homo sapiens, UniProt P10636, A469T); assay: Fibrillization of Tau^FL-A152T monitored by ThS assay; assay type: biochemical; details: Tau:peptide = 1:1; 1:5; 1:10
T1 construct: Tau^FL-A152T Full-length Tau mutant A152T
T1 sequence (P10636 1-441 isoform P10636-8 A152T): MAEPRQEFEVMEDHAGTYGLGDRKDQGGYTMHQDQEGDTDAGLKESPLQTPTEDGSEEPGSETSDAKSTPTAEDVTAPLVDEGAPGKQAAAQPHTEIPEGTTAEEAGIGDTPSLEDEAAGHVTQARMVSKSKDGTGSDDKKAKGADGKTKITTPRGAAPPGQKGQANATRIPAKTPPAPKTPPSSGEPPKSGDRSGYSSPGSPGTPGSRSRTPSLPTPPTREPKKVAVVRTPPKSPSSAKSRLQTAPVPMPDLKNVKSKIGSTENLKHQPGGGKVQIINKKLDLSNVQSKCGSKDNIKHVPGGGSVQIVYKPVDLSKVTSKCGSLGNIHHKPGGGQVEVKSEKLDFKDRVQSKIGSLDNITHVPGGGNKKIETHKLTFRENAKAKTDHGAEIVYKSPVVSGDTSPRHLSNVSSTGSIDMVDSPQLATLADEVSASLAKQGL
Description: (§1) For Tau fibrillization inhibition assays, 10 μM Tau mutant protein (Tau^RDΔK, Tau^FLΔK, Tau^FL-A152T, Tau^FL-P301L) was incubated in BES buffer (N,N-bis(2-hydroxyethyl)-2-aminoethanesulfonic acid, pH 7) in the presence of 2.5 μM heparin at 37 °C for 24 h with and without novel D-peptides (ISAD1 and ISAD1rev) at different concentrations (1 nM to 200 μM). Final concentration of 20 μM ThS was used for monitoring fibrillization. The assay was performed with 40-μl sample volume per well in a 384-well microtiter plate (Thermo LabSystems, Dreieich, Germany). The fibrillization of Tau was monitored by ThS and the relative fluorescence intensity of ThS was read out at 440 excitation/521 emission nm in a Tecan micro titer plate reader (Tecan, Männedorf, Switzerland).

Tau^FL-P301L = target: T2, Tau^FL-P301L (Homo sapiens, UniProt P10636, P618L); assay: Fibrillization of Tau^FL-P301L monitored by ThS assay; assay type: biochemical; details: Tau:peptide = 1:1; 1:5; 1:10
T2 construct: Tau^FL-P301L Full-length Tau mutant P301L
T2 sequence (P10636 1-441 isoform P10636-8 P301L): as the sequence (P10636 1-441 isoform P10636-8 A152T) above, with T152A, P301L counted along it
Description: as §1

Tau^RDΔK = target: T3, Tau^RDΔK (Homo sapiens, UniProt P10636, DEL597-597); assay: Pelleting assay and western blot, Tau^RDΔK; assay type: biochemical; details: 10 μM Tau, 100 μM peptide, 24 h, 61,000 rpm 60 min, K9JA western blot
T3 construct: Tau^RDΔK Pro-aggregant repeat domain Tau mutant ΔK280; made in house
T3 sequence (P10636 with tags, fused parts or gaps DEL597-597): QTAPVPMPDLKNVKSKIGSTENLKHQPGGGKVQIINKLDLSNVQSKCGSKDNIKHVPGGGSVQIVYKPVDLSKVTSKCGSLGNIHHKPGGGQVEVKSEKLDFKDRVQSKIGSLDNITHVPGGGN
Description: (§2) After the ThS assay (end time point, 24 h), 70 μl of each sample (pooled together from 2 wells) was centrifuged in a Beckmann coulter (Optima Max Ultra Centrifuge, TLA 100.3 rotor) at 61,000 rpm for 60 min at 4 °C. After centrifugation, the supernatant was separated from the pellet. Then, the pellet was dissolved in BES buffer in an equal volume as the supernatant. For the following western blot, 12-μl samples were mixed with 3-μl SDS-sample buffer (5x), heated for 5 min at 95 °C, and loaded onto a 8–16% SDS tris-glycine-gel (BioRad, Feldkirchen, Germany). The proteins were transferred to a polyvinylidene fluoride (PVDF) membrane. After the transfer, the membrane was blocked in 5% non-fat dry milk. After washing the membrane three times for 10 min with TBST, the primary pan-Tau K9JA antibody (1:5000; Agilent, Waldbronn, Germany) was incubated for 1 h at RT with gentle agitation, followed by again 3-times washing with TBST. For detection on western blot, the secondary antibody (goat anti-rabbit HRP, Agilent, Waldbronn, Germany) was incubated in a 1:2000 dilution for 1 h at RT with shaking. […] The quantification of intensities was performed using ImageJ.

[1] = system: Tau^FLΔK, Tau^FL-A152T, Tau^FL-P301L; assay: Pelleting assay and western blot, full-length Tau mutants; assay type: biochemical, human; details: 10 µM Tau mutant, 100 µM peptide, 24 hours, K9JA western blot
Description: as §2, with “TBST.” for “TBST. For detection on western blot, the secondary antibody (goat anti-rabbit HRP, Agilent, Waldbronn, Germany) was incubated in a 1:2000 dilution for 1 h at RT with shaking.”
S-Figure 4-6: ISAD1 induces the formation of non-fibrillar large aggregates of Tau mutants. […] (C) The intensity of protein amount in supernatant and pellet was quantified by ImageJ for different Tau mutants such as Tau^FLΔK (Sup. Fig. 2C), Tau^FL-^A152T (Sup. Fig. 3C) or Tau^FL^-P^301L (Sup. Fig. 4C).

N2a-Tau^RDΔK cells = assay: LDH release, externally added Tau^RDΔK aggregates; assay type: cell-based; details: 10 μM Tau, 100 μM peptide final, pre-incubated, 24 h on cells, n = 3
Description: N2a cells expressing Tau^RDΔK were plated on poly D-lysine-coated 96-well plates with a density of 25,000 cells/well. At 70 to 80% confluence, the cells were treated for 24 h with various concentrations of D-peptides (25, 50, 100, and 250 μM) or Tau^RDΔK (10 μM final concentration) in the presence of ISAD1 and ISAD1rev (100 μM final concentration). The ability of D-peptides to neutralize the toxicity of Tau^RDΔK oligomers/fibrils was investigated by measuring the amount of released LDH (Roche Diagnostics, Mannheim, Germany). Therefore, 50 μL of each well was transferred to a fresh 96-well plate and 50 μL of reagent was added followed by a 30-min incubation period at RT. Finally, 50 μL of stop solution (1 N HCl) was added and absorbance was recorded at 492 nm (TECAN spectrofluorometer, Männedorf, Switzerland). Absorbance values were corrected by background values and the percentage of LDH release was calculated.

`CC(C)C[C@@H](NC(=O)[C@@H](CO)NC(=O)[C@@H](CC(C)C)NC(=O)[C@H](NC(=O)[C@@H](CC(=O)O)NC(=O)[C@@H](C)NC(=O)[C@@H](C)NC(=O)[C@H](N)CO)[C@H](C)O)C(=O)N[C@H](CCCCN)C(=O)N[C@H](Cc1ccccc1)C(=O)N[C@@H](C(=O)N[C@H](CO)C(=O)O)C(C)C` [ISAD1rev] (H-[dS][dA][dA][dD][dT][dL][dS][dL][dK][dF][dV][dS]-OH; N-terminus and C-terminus assumed) was tested, and the “Inhibition of Tau^FL-A152T fibrillization, in words” value (Tau^FL-A152T) was “weak inhibitory effects”, the “Inhibition of Tau^FL-P301L fibrillization, in words” value (Tau^FL-P301L) was “weak inhibitory effects” and the “Distribution of Tau^RDΔK between pellet and supernatant” value (Tau^RDΔK) was “only apparent in the pellet”. The “Distribution of full-length Tau mutants between pellet and supernatant” value [1] was “more fractions in the supernatant” and the “Effect on toxicity of Tau aggregates, LDH release” value (N2a-Tau^RDΔK cells) was “Low LDH release levels”.
